Experimental data: patent US20060160897A1, “Topical Use of Valproic Acid for the Prevention or Treatment of Skin Disorders” (priority 2003, published 2006)

Columns and labels:
HaCaT cells = experiment: Apoptosis assay, flow cytometry of Sub-G1 DNA containing cells; format: cell-based, human; settings: drugs day 1, assay day 2, combinations VPA 1 mM + Tazarotene 1 or 2 μM, FIG. 5
Procedure: Apoptosis assays: Apoptosis was measured by a Beckton Dickinson FACScalibur flow cytometer by analysing the percentage of Sub-G1 DNA containing cells. 10000 events were recorded for each sample. The amplification scale was linear for all parameters. Photomultiplier tension was set as to place the peak DNA content corresponding cells in G0/G1 at channel 300 in the FL2-H vs SCC—H graphs. Cells showing a less than peak DNA content (hypodiploid cells) and high SSC—H (granular high condensed cells) were regarded as apoptotic. The experiments were repeated three times in duplicate. Error bars represent 1 standard deviation.
Cells were plated in 35 mm diameter wells on day 0. Drugs were added on day 1. The apoptosis assay was carried out on day 2. […] Thus, the combinatorial activity of these two drugs must be explained via synergistic activity of this treatment.

[1] = In vitro skin permeation assay, Franz type diffusion cell with SCE membranes; format: in vitro ADME, human; settings: sodium valproate 3% (w/w) in Sepigel gel, SCE membranes 0.75 cm^2, 10 h, 35° C.; FIG. 6
Procedure: The resulting gel was stored at room temperature for 24 h prior to use.
In vitro skin permeation assay: The analyses were carried out using a Franz type glass diffusion cell (LGA, Berkeley, Calif., USA) assembled with membranes carrying stratum corneum and epidermis (SCE). Adult human skin samples (mean age 29±5 years) were obtained from abdominal reduction surgery. Subcutaneous fat was trimmed and the skin samples were immersed in distilled water at 60° C. for 1 min; then stratum corneum and epidermis (SCE) were peeled off The SCE samples were dried at room temperature in a desiccator maintained at approximately 25% relative humidity. […] Skin barrier integrity of the SCE membranes used in this protocol was assessed by determining their tritiated water permeability coefficient (Kp). […] All samples were analyzed for sodium valproate contents by means of an HPLC with spectrofluorimetric detection. The results were expressed as total amount permeated (mg).
Quantitative determination of Sodium Valproate: To determine sodium valproate, samples were derivatized with 4-bromomethyl-7-methoxycoumarin (BMMC). […]
Adult human skin samples (skin surface area was 0.75 cm^2) were prepared as described in the methods section. […] All samples were analyzed for sodium valproate contents by means of an HPLC with spectrofluorimetric detection. The results were expressed as total amount permeated (mg).

histone H4 acetylation = experiment: Immunohistochemistry of acetylated H4 after topical application to mouse skin; format: in vivo; settings: athymic nude mice, VPA topically applied at 3% (w/w) vs placebo; FIGS. 8 and 9
Procedure: Cryostat skin sections of 3 μm thickness were fixed in acetone at room temperature for 10 min. Before staining with anti-acetylated H4 antibody (clone T25, see above) the tissue was blocked by preincubation with F(ab′)2 fragments derived from goat anti-mouse immunoglobulin (Cappel) ( 1/10000 dilution in 50 mM Tris buffered saline, TBS) for 30 min. After rinsing with TBS for 10 min, the sections were incubated with anti-acetylated H4 antibody (clone T25) ( 1/4000 dilution in TBS) at room temperature for 1 hour. Then, the specimens were incubated with the rabbit anti-mouse serum and treated with APAAP (alkaline phosphatase anti-alkaline phosphatase) immunocomplex as described above. The positive staining was developed in red color with naphthol-AS-BI phosphate as a substrate, and New Fuchsin (Dako) as a chromogen. Pictures were taken with a digital camera connected to a light microscopy apparatus.
Skin biopsies were frozen in liquid nitrogen immediately after excision. Immunohistochemistry was then performed on 3 μm sections as described in methods. Biopsies of skin topically treated with Placebo or VPA were processed in parallel, pictures were taken with a light microscopy apparatus connected to a digital camera under the same light intensity.

inflammatory cytokines = experiment: RT-PCR of cytokine mRNA, blood cells of VPA treated patient stimulated with CD3/CD28; format: in vivo, human
Procedure: Total RNA from unstimulated and CD3/CD28 stimulated cells was isolated using the RNeasy mini kit (Qiagen). One microgram of total RNA was converted to cDNA by standard methods using reverse transcriptase and an oligo-dT primer (Invitrogen). For semiquantitative PCR, 2 μl of cDNA were amplified by PCR using the specific primers as described above (FIG. 19C).

[2] = starting at 24 hours of VPA treatment

SMILES: CCCC(CCC)C(=O)O [VPA, 2-propyl-pentanoic acid]
- apoptosis (Sub-G1 DNA containing cells) (HaCaT cells): clear increase in subG1 DNA content
- permeation of human skin (total amount permeated) [1]: permeates the skin in a time dependent manner
- histone H4 acetylation in skin cells (histone H4 acetylation): clear increase of histone H4 acetylation
- IL-2 mRNA transcripts (inflammatory cytokines; CD3/CD28 stimulated): decrease
- TNF-α mRNA transcripts (inflammatory cytokines; CD3/CD28 stimulated): decrease
- IFN-γ mRNA expression (inflammatory cytokines; [2]): significantly reduced
- IL-4 mRNA expression (inflammatory cytokines; [2]): significantly reduced
